In the NIST ThermoML archive (doi:10.1021/je050464i):
“And” between values parts separate entries of the source, which are not always exact repeats. Equal entries are not always repeated. Numbers after ± are expanded uncertainties.

Settings: Crystal, Calculated from knudsen effusion weight loss

[Pd] [palladium]
Settings | vapor or sublimation pressure
1473 K | 1e-05 kPa
1498 K | 2e-05 ± 2e-05 kPa
1523 K | 3e-05 ± 2e-05 kPa
1548 K | 6e-05 ± 4e-05 kPa
1573 K | 9e-05 ± 3e-05 kPa
1576 K | 9e-05 ± 0.00016 kPa
1598 K | 0.000141 ± 3e-05 kPa
1600 K | 0.00011 ± 3e-05 kPa
1626 K | 0.0002 ± 0.00014 kPa
1648 K | 0.00028 ± 9e-05 kPa
1650 K | 0.00026 ± 0.00019 kPa
1660 K | 0.0005 ± 0.0002 kPa
1673 K | 0.0004 ± 0.00019 kPa and 0.0004 ± 0.0002 kPa and 0.0004 ± 8e-05 kPa
1676 K | 0.00044 ± 0.00018 kPa
1685 K | 0.00067 ± 0.00019 kPa
1698 K | 0.0005 ± 0.0006 kPa and 0.00076 ± 0.00012 kPa and 0.00058 ± 5e-05 kPa
1700 K | 0.00061 ± 0.00014 kPa
1706 K | 0.0009 ± 0.0002 kPa
1723 K | 0.00108 ± 0.0002 kPa [middle of 4 runs]
1726 K | 0.00094 ± 0.00018 kPa
1740 K | 0.0012 ± 0.0003 kPa
1748 K | 0.0016 ± 0.0005 kPa and 0.0016 ± 0.0003 kPa and 0.0012 ± 0.00026 kPa
1750 K | 0.00131 ± 0.0003 kPa
1773 K | 0.002 ± 0.0005 kPa and 0.0022 ± 0.0005 kPa
1776 K | 0.002 ± 0.0003 kPa
1798 K | 0.0024 ± 0.0009 kPa and 0.0029 ± 0.0006 kPa
1800 K | 0.0027 ± 0.0005 kPa
1802 K | 0.0024 ± 0.0009 kPa
1806 K | 0.002 ± 0.002 kPa
1823 K | 0.004 ± 0.0011 kPa
1825 K | 0.0037 ± 0.0009 kPa
1840 K | 0.0047 ± 0.0011 kPa
1848 K | 0.0048 ± 0.0011 kPa
1850 K | 0.0053 ± 0.0011 kPa
1860 K | 0.0061 ± 0.0017 kPa
1873 K | 0.008 ± 0.008 kPa and 0.0076 ± 0.0017 kPa
1883 K | 0.0066 ± 0.0018 kPa
1885 K | 0.0082 ± 0.0017 kPa
1898 K | 0.01 ± 0.014 kPa and 0.0094 ± 0.002 kPa
1900 K | 0.0098 ± 0.0016 kPa
1910 K | 0.0109 ± 0.0023 kPa
1912 K | 0.0111 ± 0.002 kPa
1923 K | 0.013 ± 0.006 kPa and 0.014 ± 0.003 kPa
1925 K | 0.0125 ± 0.0021 kPa
1940 K | 0.015 ± 0.004 kPa
1942 K | 0.0157 ± 0.0035 kPa
1948 K | 0.018 ± 0.01 kPa and 0.017 ± 0.003 kPa and 0.021 ± 0.005 kPa
1950 K | 0.0174 ± 0.0031 kPa and 0.0166 ± 0.003 kPa
1954 K | 0.021 ± 0.005 kPa
1963 K | 0.02 ± 0.004 kPa and 0.0201 ± 0.0034 kPa
1965 K | 0.0203 ± 0.0028 kPa and 0.0204 ± 0.0028 kPa
1970 K | 0.024 ± 0.018 kPa
1972 K | 0.022 ± 0.005 kPa
1973 K | 0.022 ± 0.005 kPa and 0.024 ± 0.007 kPa and 0.02 ± 0.003 kPa
